Assay results: patent publication US20160024108A1, “USE OF DITHIINE-TETRACARBOXIMIDES FOR CONTROLLING BACTERIAL HARMFUL ORGANISMS IN USEFUL PLANTS” (BAYER CROPSCIENCE AKTIENGESELLSCHAFT, priority 2013, published 2016)

System: Pseudomonas syringae pv tomato
Experiment: Field trial against bacterial speck on tomato (Spain, 2011), artificial inoculation
Format: in vivo
Conditions: formulation containing 400 g per liter at 500 g ai/ha; in comparison with untreated plots and copper oxychloride standard
Procedure: A standard experiment was conducted in Spain in 2011 to evaluate the performance of BCS-BB98685 against bacterial speck of tomato caused by the bacteria Pseudomonas syringae pv tomato. Tomato plants were grown under plastic tunnel. Plots were artificially inoculated with a suspension of bacteria and treated with different experimental chemical formulations using a conventional sprayer. Four chemical sprays were applied within 7 days intervals. One artificial inoculation was performed one day after the third application. Disease assessment was done on 3 tomato plants per plot, 11 days after the last application. Infected leaflets were sorted in 3 classes according to a severity scale (Class 1=1 spot/leaflet; Class 2=2-5 spots/leaflet; Class 3=>5 spots/leaflet). Then results were expressed as severity index and transformed in efficacy values using the Abbott formula.

## Cn1c(=O)c2sc3c(=O)n(C)c(=O)c3sc2c1=O [Compound I-1, 2,6-dimethyl-1H,5H-[1,4]dithiino[2,3-c:5,6-c′]dipyrrole-1,3,5,7(2H,6H)-tetrone]
  level of bacterial infection on tomatoes: significantly reduce the level of bacterial infection on tomatoes
